In patent US20220096516A1, “OLIGONUCLEOTIDE MOLECULE AND APPLICATION THEREOF IN TUMOR THERAPY” (Ractigen Therapeutics, priority 2019, published 2022):
d = 2'-deoxy (DNA); r = 2'-OH (RNA)

Legend:
Assay type in all cases: cell-based, human
[1] = tested on: LHPP gene; assay: High-throughput screening of saRNAs targeting LHPP promoter: LHPP mRNA by one-step RT-qPCR in Huh7 cells; details: 10 nM saRNA, 72 hours, relative to control (Mock)
Procedure, shortened: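 LHPP transcript level relative to mock, normalised to the geometric mean of the HPRT1 and TBP reference genes, measured by one-step RT-qPCR on crude lysates. Huh7 cells had been RNAiMax-transfected with each saRNA at 10 nM for 72 h.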

[2] = tested on: LHPP gene; assay: LHPP mRNA expression by RT-qPCR in cancer cell lines; details: 72 h, FIG. 7A
Experimental: (§1) 8 LHPP promoter-targeting saRNAs were individually transfected into liver cancer cells at 10 nM for 72 h. In FIG. 6A, the expression level of LHPP mRNA was analyzed by RT-qPCR. In FIG. 6B, cell viability in the saRNA treatment group was evaluated by the CCK-8 method and recorded as a percentage relative to the viability of cells in a control (Mock) treatment group.
as §1, with “into” for “into liver”, “7A,” for “6A,”, “7B,” for “6B,”
(§2) In order to further evaluate the effect of LHPP saRNAs in inducing the mRNA expression of the LHPP gene and inhibiting the proliferation of cancer cells, eight screened saRNAs (RAG7-132, RAG7-133, RAG7-139, RAG7-177, RAG7-178, RAG7-694, RAG7-707 and RAG7-892) each were transfected into the liver cancer cell lines Huh7 (Medical Cell Resource Center, Tohoku University, Japan), HepG2 (ATCC), Hep3B (ATCC), Li-7 (Medical Cell Resource Center, Tohoku University, Japan) and SK-HEP-1 (ATCC), a lung cancer cell line A549 (ATCC), a bladder cancer cell line T24 (ATCC), a prostatic cancer cell line PC3 (ATCC), and a glioma cell line U87MG (ATCC). The mRNA expression and cell viability of the transfected cells were measured.

[3] = tested on: lung cancer cell line A549; assay: Cell viability by CCK-8 method, A549; details: A549, 10 nM, 72 h, FIG. 7B
Experimental: as §1, with “into” for “into liver”, “7A,” for “6A,”, “7B,” for “6B,”
(§3) The cell viability was detected by the following CCK-8 method: the cCells were plated into a 96-well plate at 3-5×10^3 cells/well, cultured overnight, and transfected with the oligonucleotide duplexes. After 72 hour of transfection, 10 uL of CCK-8 solution (Dojindo Molecular Technologies) was added into each well. After 1 hour of incubation at 37° C., a microplate reader was used to measure absorbances at 450 nm.
as §2

[4] = tested on: bladder cancer cell line T24; assay: Cell viability by CCK-8 method, T24; details: T24, 10 nM, 72 h, FIG. 7B
Experimental: as §1, with “into” for “into liver”, “7A,” for “6A,”, “7B,” for “6B,”
as §3, §2

[5] = tested on: glioma cell line U87MG; assay: Cell viability by CCK-8 method, U87MG; details: 10 nM, 72 h, FIG. 7B
Experimental: as §1, with “into” for “into liver”, “7A,” for “6A,”, “7B,” for “6B,”
as §3, §2

[6] = tested on: prostatic cancer cell line PC3; assay: Cell viability by CCK-8 method, PC3; details: PC3, 10 nM, 72 h, FIG. 7B
Experimental: as §1, with “into” for “into liver”, “7A,” for “6A,”, “7B,” for “6B,”
as §3, §2

Substance | Fold of changes in relative LHPP mRNA expression level [1] [fold] | Fold of changes in relative LHPP mRNA expression level (log2) [1] [log2] | other results
RAG7-177: saRNA duplex; sense AUUUGCCUUUGACCUUUCUTT (SEQ ID NO: 6), antisense AGAAAGGUCAAAGGCAAAUTT (SEQ ID NO: 170) (sugars from the 5' end r19 d2, backbone not given here) | 1.74 | 0.80 | expression of LHPP gene (mRNA) ([2]; A549, 10 nM): induced the expression of LHPP gene to different degrees; expression of LHPP gene (mRNA) ([2]; T24, 10 nM): induced the expression of LHPP gene to different degrees; expression of LHPP gene (mRNA) ([2]; U87MG, 10 nM): induced the expression of LHPP gene to different degrees; cell proliferation (cell viability, CCK-8) [3]: inhibited cell proliferation; cell proliferation (cell viability, CCK-8) [4]: inhibited cell proliferation; cell proliferation (cell viability, CCK-8) [5]: inhibited cell proliferation
RAG7-178: saRNA duplex; sense AAUUUGCCUUUGACCUUUCTT (SEQ ID NO: 5), antisense GAAAGGUCAAAGGCAAAUUTT (SEQ ID NO: 169) (sugars from the 5' end r19 d2, backbone not given here) | 1.76 | 0.82 | expression of LHPP gene (mRNA) ([2]; A549, 10 nM): induced the expression of LHPP gene to different degrees; expression of LHPP gene (mRNA) ([2]; PC3, 10 nM): induced the expression of LHPP gene to different degrees; expression of LHPP gene (mRNA) ([2]; U87MG, 10 nM): induced the expression of LHPP gene to different degrees; cell proliferation (cell viability, CCK-8) [3]: inhibited cell proliferation; cell proliferation (cell viability, CCK-8) [6]: inhibited cell proliferation; cell proliferation (cell viability, CCK-8) [5]: inhibited cell proliferation
RAG7-890: saRNA duplex; sense UUGGACCAGAAGUAAAGUGTT (SEQ ID NO: 76), antisense CACUUUACUUCUGGUCCAATT (SEQ ID NO: 240) (sugars from the 5' end r19 d2, backbone not given here) | 1.28 | 0.36 | 
RAG7-892: saRNA duplex; sense UGUUGGACCAGAAGUAAAGTT (SEQ ID NO: 2), antisense CUUUACUUCUGGUCCAACATT (SEQ ID NO: 166) (sugars from the 5' end r19 d2, backbone not given here) | 2.05 | 1.03 | 
RAG7-893: saRNA duplex; sense AUGUUGGACCAGAAGUAAATT (SEQ ID NO: 14), antisense UUUACUUCUGGUCCAACAUTT (SEQ ID NO: 178) (sugars from the 5' end r19 d2, backbone not given here) | 1.63 | 0.70 | 
RAG7-894: saRNA duplex; sense UAUGUUGGACCAGAAGUAATT (SEQ ID NO: 37), antisense UUACUUCUGGUCCAACAUATT (SEQ ID NO: 201) (sugars from the 5' end r19 d2, backbone not given here) | 1.45 | 0.54 | 
RAG7-896: saRNA duplex; sense GCUAUGUUGGACCAGAAGUTT (SEQ ID NO: 69), antisense ACUUCUGGUCCAACAUAGCTT (SEQ ID NO: 233) (sugars from the 5' end r19 d2, backbone not given here) | 1.30 | 0.38 | 
RAG7-897: saRNA duplex; sense AGCUAUGUUGGACCAGAAGTT (SEQ ID NO: 65), antisense CUUCUGGUCCAACAUAGCUTT (SEQ ID NO: 229) (sugars from the 5' end r19 d2, backbone not given here) | 1.31 | 0.39 | 
RAG7-898: saRNA duplex; sense AAGCUAUGUUGGACCAGAATT (SEQ ID NO: 59), antisense UUCUGGUCCAACAUAGCUUTT (SEQ ID NO: 223) (sugars from the 5' end r19 d2, backbone not given here) | 1.34 | 0.43 | 
RAG7-899: saRNA duplex; sense AAAGCUAUGUUGGACCAGATT (SEQ ID NO: 84), antisense UCUGGUCCAACAUAGCUUUTT (SEQ ID NO: 248) (sugars from the 5' end r19 d2, backbone not given here) | 1.26 | 0.33 | 
RAG7-902: saRNA duplex; sense CUCAAAGCUAUGUUGGACCTT (SEQ ID NO: 50), antisense GGUCCAACAUAGCUUUGAGTT (SEQ ID NO: 214) (sugars from the 5' end r19 d2, backbone not given here) | 1.38 | 0.46 | 
RAG7-905: saRNA duplex; sense AAGCUCAAAGCUAUGUUGGTT (SEQ ID NO: 92), antisense CCAACAUAGCUUUGAGCUUTT (SEQ ID NO: 256) (sugars from the 5' end r19 d2, backbone not given here) | 1.24 | 0.31 | 
RAG7-907: saRNA duplex; sense GAAAGCUCAAAGCUAUGUUTT (SEQ ID NO: 22), antisense AACAUAGCUUUGAGCUUUCTT (SEQ ID NO: 186) (sugars from the 5' end r19 d2, backbone not given here) | 1.55 | 0.63 | 
RAG7-908: saRNA duplex; sense UGAAAGCUCAAAGCUAUGUTT (SEQ ID NO: 31), antisense ACAUAGCUUUGAGCUUUCATT (SEQ ID NO: 195) (sugars from the 5' end r19 d2, backbone not given here) | 1.49 | 0.57 | 
RAG7-909: saRNA duplex; sense UUGAAAGCUCAAAGCUAUGTT (SEQ ID NO: 23), antisense CAUAGCUUUGAGCUUUCAATT (SEQ ID NO: 187) (sugars from the 5' end r19 d2, backbone not given here) | 1.53 | 0.61 | 
RAG7-911: saRNA duplex; sense CUUUGAAAGCUCAAAGCUATT (SEQ ID NO: 160), antisense UAGCUUUGAGCUUUCAAAGTT (SEQ ID NO: 324) (sugars from the 5' end r19 d2, backbone not given here) | 1.11 | 0.15 | 
RAG7-914: saRNA duplex; sense CUUCUUUGAAAGCUCAAAGTT (SEQ ID NO: 143), antisense CUUUGAGCUUUCAAAGAAGTT (SEQ ID NO: 307) (sugars from the 5' end r19 d2, backbone not given here) | 1.14 | 0.19 | 
RAG7-916: saRNA duplex; sense CUCUUCUUUGAAAGCUCAATT (SEQ ID NO: 33), antisense UUGAGCUUUCAAAGAAGAGTT (SEQ ID NO: 197) (sugars from the 5' end r19 d2, backbone not given here) | 1.48 | 0.56 | 
RAG7-917: saRNA duplex; sense UCUCUUCUUUGAAAGCUCATT (SEQ ID NO: 64), antisense UGAGCUUUCAAAGAAGAGATT (SEQ ID NO: 228) (sugars from the 5' end r19 d2, backbone not given here) | 1.32 | 0.40 | 
